Results: article PMC10041521, “Fluorescent Activity-Based Probe To Image and Inhibit Factor XIa Activity in Human Plasma” (Journal of Medicinal Chemistry, 2023)
Values joined by “and” are separate entries in the source; they are usually repeats but may differ in a detail not shown here. Equal entries are not always repeated. [ ]: non-standard residue; d: D form. The star is where a group is joined. ACC = NC(=O)Cc1cc(=O)oc2cc(N*)ccc12; Nle = CCCC[C@H](N)C(=O)O; OBn = c1ccc(CO*)cc1; Bn = c1ccc(C*)cc1

What was measured:
Assay type in all cases: biochemical
fXIa [1] = target: T1, fXIa (Homo sapiens, UniProt P03951); test: Screening of individual substrates (hydrolysis rate, RFU/s); set-up: complete conversion of the single chain zymogen to the two-chain active form; made in house; host or cells: HEK293 cells expressing EBNA (pCEP4 vector); conditions: substrate 1 μM, 5 nM fXIa, RFU/s over 30 min, 37 °C
T1 sequence (P03951 388-625 limits assumed): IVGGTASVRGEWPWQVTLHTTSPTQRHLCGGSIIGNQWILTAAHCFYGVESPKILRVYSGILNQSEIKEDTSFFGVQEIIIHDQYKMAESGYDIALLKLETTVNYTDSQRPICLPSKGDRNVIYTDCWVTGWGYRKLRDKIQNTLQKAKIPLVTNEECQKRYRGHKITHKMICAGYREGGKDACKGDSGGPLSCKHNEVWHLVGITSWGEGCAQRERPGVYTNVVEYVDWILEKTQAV
T1 sequence (P03951 19-387 partner limits assumed): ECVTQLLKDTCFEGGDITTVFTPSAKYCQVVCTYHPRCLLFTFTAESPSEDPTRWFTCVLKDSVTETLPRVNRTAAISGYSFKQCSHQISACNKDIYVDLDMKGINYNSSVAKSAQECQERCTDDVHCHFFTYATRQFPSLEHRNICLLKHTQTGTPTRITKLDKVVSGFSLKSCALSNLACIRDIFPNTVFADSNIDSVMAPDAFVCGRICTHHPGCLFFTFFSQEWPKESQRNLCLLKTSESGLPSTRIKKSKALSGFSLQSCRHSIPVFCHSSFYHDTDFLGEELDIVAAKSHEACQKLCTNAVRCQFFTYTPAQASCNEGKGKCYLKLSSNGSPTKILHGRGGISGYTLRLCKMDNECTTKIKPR
Experimental: (§1) All kinetic assays were performed using a spectrofluorometer (Molecular Devices SpectraMax Gemini XPS) on 96-well, white, flat bottom, nontreated plates (Corning). The parameters were as follows: excitation/emission wavelength, 355/460 nm (cutoff, 455 nm); varying concentrations of substrates, ABPs, inhibitor, and enzymes. The assay buffer (20 mM Tris-base, 150 mM NaCl, 5 mM CaCl2, pH 7.4) was prepared at room temperature, and the enzyme kinetic studies were performed at 37 °C. All enzymes were preincubated in assay buffer for 15 min at 37 °C before addition to the wells. Each assay was repeated at least twice, and the data represent the average of these repetitions. The obtained results were analyzed using SoftMax (Molecular Devices), GraphPad Prism, and Microsoft Excel software.
All potentially selective fXIa substrates were tested for their selectivity against four coagulation factors, APC, thrombin, fXa, and fXIa at a concentration of 1 μM. The assay conditions were as follows: 1 μL of each substrate was placed in separate wells on the plate followed by the addition of 99 μL of preincubated enzyme (15 min, 37 °C) in assay buffer. To obtain reliable results and a robust fluorescence signal, the final enzyme concentration was 120 nM for APC, 20 nM for thrombin, 70 nM for fXa, and 5 nM for fXIa. Substrate hydrolysis was measured for 30 min (λex = 355 nm, λem = 460 nm), and the linear part of each progress curve was used to determine the substrate hydrolysis rate (RFU/s). The obtained RFU/s were then adjusted to represent the value corresponding to the same enzyme activity.

fXIa [2] = target: T1, fXIa; test: Kinetic parameters (kcat/KM) of ACC-labeled substrates; set-up: complete conversion of the single chain zymogen to the two-chain active form; made in house; host or cells: HEK293 cells expressing EBNA (pCEP4 vector); conditions: for kcat/KM fXIa: Michaelis-Menten, 5 nM fXIa, 20 mM Tris, 150 mM NaCl, 5 mM CaCl2, pH 7.4, 37 °C, ACC release 30 min, mean ± s.d., n = 3
Experimental: as §1
(§2) The kinetic parameters (kcat, KM, and kcat/KM) of selected ACC-labeled substrates were determined using Michaelis–Menten nonlinear regression according to the protocol described by Poreba et al.[62] Each substrate was serially diluted until the eighth well to obtain substrate concentrations ranging from 1.16 nM to 111 μM depending on the substrate used. Next, each enzyme was preincubated (15 min, 37 °C) in assay buffer to a final enzyme concentration of 425 nM for APC, 70 nM for thrombin, 200 nM for fXa, and 5 nM for fXIa and was added to the wells containing eight different substrate concentrations. The release of ACC was measured for 30 min (λex = 355 nm, λem = 460 nm). The linear part of each progression curve was used to calculate the kinetic parameters using GraphPad Prism and Microsoft Excel software.

APC = target: T2, APC (Homo sapiens, UniProt P04070); test: as above; conditions: Michaelis-Menten, 425 nM APC, assay buffer pH 7.4, 37 °C, ACC release 30 min; mean ± s.d., n = 3
T2 construct: from tissue; host or cells: fresh frozen plasma
T2 sequence (P04070 212-461 limits assumed): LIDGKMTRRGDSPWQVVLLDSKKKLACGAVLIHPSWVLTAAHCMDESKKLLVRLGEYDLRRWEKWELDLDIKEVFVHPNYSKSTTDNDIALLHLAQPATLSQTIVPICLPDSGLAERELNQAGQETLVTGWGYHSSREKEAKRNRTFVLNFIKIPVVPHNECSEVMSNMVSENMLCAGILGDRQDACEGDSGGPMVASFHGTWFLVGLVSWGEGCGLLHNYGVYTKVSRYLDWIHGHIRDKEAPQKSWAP
T2 sequence (P04070 43-197 partner limits assumed): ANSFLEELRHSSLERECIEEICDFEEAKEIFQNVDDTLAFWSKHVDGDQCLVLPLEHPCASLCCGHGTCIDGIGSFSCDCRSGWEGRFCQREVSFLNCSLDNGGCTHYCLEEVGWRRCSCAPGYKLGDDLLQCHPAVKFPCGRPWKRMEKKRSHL
Experimental: (§3) Protein C, factor X, and prothrombin were purified from fresh frozen plasma and then activated as previously described.[33]
as §1, §2

fXa = target: T3, fXa (Homo sapiens, UniProt P00742); test: as above; conditions: Michaelis-Menten, 200 nM fXa, assay buffer pH 7.4, 37 °C, ACC release 30 min; mean ± s.d., n = 3
T3 construct: from tissue; host or cells: fresh frozen plasma
T3 sequence (P00742 235-488 limits assumed): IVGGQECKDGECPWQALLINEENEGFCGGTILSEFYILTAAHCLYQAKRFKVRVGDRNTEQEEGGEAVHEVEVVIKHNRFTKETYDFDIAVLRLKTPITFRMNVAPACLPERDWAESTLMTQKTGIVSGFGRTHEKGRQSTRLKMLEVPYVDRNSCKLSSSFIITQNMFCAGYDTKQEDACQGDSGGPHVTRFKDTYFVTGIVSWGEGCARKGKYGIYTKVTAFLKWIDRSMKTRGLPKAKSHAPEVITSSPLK
T3 sequence (P00742 41-179 partner limits assumed): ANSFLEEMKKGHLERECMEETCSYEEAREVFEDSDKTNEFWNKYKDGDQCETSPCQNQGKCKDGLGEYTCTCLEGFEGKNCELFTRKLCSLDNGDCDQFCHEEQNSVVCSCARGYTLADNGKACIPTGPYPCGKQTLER
Experimental: as §3, §1, §2

thrombin = target: T4, thrombin (Homo sapiens, UniProt P00734); test: as above; conditions: Michaelis-Menten, 70 nM thrombin, assay buffer pH 7.4, 37 °C, ACC release 30 min; mean ± s.d., n = 3
T4 construct: from tissue; host or cells: fresh frozen plasma
Experimental: as §3, §1, §2

fXIa [3] = target: T1, fXIa; test: Labeling of purified coagulation factors with ABPs, SDS-PAGE and blot; set-up: complete conversion of the single chain zymogen to the two-chain active form; made in house; host or cells: HEK293 cells expressing EBNA (pCEP4 vector); conditions: APC, thrombin, fXa, fXIa 200 nM each, separately, probe/enzyme 1:1, 30 min, 37 °C; for labeling of purified coagulation factors by biotinylated ABP (western blot): streptavidin Alexa Fluor 647, 658 nm
Experimental: To determine biotin-labeled ABPs selectivity, four purified coagulation factors (APC, thrombin, fXa, and fXIa) with a constant concentration of 200 nM were incubated separately with each probe (the probe/enzyme ratio was 1) in assay buffer for 30 min at 37 °C. Each enzyme was incubated with each probe in a volume of 40 μL followed by reduction with 20 μL of 3 × SDS/DTT for 5 min at 95 °C. The first well was loaded with 0.5 μL of the protein marker PageRuler Prestained Protein Ladder (Thermo Scientific), and then 10 μL of each sample was run on a 12% (w/v) 15-well gel. SDS–PAGE separation was performed at 200 V for 39 min followed by a wet tank transfer to a nitrocellulose membrane (0.2 μm, Bio-Rad) at 10 V for 60 min. The membrane was blocked with 2.5% BSA in TBS-T (Tris-buffered saline with 0.1% (v/v) Tween 20) for 60 min at room temperature. Next, the membrane was incubated with fluorescent streptavidin Alexa Fluor 647 conjugate (dilution 1:10,000 in TBS-T with 1% BSA) for 60 min. The biotin-labeled ABPs were detected at 658 nm using an Azure Biosystems Sapphire Biomolecular Imager and Azure Spot Analysis software.
For fluorescently labeled probe sample preparation, electrophoresis and membrane transfer were performed as described above. When testing the inhibitor utility, 200 nM fXIa was incubated with inhibitor (final inhibitor concentration 5 μM) for 60 min prior to probe addition. After the membrane was blocked with 2.5% BSA in TBS-T (60 min), the labeled proteins were directly imaged with a […] laser using an Azure Biosystems Sapphire Biomolecular Imager and Azure Spot Analysis software.

fXIa [4] = target: T1, fXIa; test: Detection of fXIa in human plasma with fluorescent ABP; conditions: EDTA plasma, 60 min, 37 °C
Experimental: Human plasma (collected in tubes containing anticoagulant EDTA) was isolated from whole blood as described elsewhere[33] and incubated with a fluorescently labeled probe at probe concentrations ranging from 1 to 20 μM. Incubation was carried out in assay buffer for 60 min at 37 °C. Plasma was incubated with the probe in a total volume of 40 μL (20 μL of plasma and 20 μL of probe) followed by reduction with 20 μL of 3 × SDS/DTT for 5 min at 95 °C. The first well was loaded with 0.5 μL of the protein marker PageRuler Prestained Protein Ladder (Thermo Scientific), and then 5 μL of each sample was run on a 12% (w/v) 15-well gel. SDS–PAGE separation was performed at 200 V for 39 min followed by transfer to a nitrocellulose membrane (0.2 μm, Bio-Rad) at 10 V for 60 min. The membrane was blocked with 2.5% BSA in TBS-T for 60 min at room temperature. Next, the membrane was treated with sheep antihuman polyclonal fXI antibody (Haematologic Technologies Inc., PAHFXI-S, 1:1000) for 7 h followed by incubation with Alexa Fluor 680 donkey antisheep secondary antibody (Life Technologies, A21102, 2:10,000) for 1 h (both at room temperature). The membrane was then scanned using an Azure Biosystems Sapphire Biomolecular Imager and Azure Spot Analysis software for fXIa at 488 nm (for BODIPY detection) and 658 nm (for antibody detection).

fXIa [5] = target: T1, fXIa; test: P1 substrate specificity, defined library Ac-Ala-Arg-Leu-P1-ACC; set-up: complete conversion of the single chain zymogen to the two-chain active form; made in house; host or cells: HEK293 cells expressing EBNA (pCEP4 vector); conditions: individual substrates Ac-Ala-Arg-Leu-P1-ACC, 100 μM, 8 nM fXIa, RFU/s, best residue = 100%, n = 2
Experimental: as §1
To determine fXIa preferences at the P1 position, we used the Ac-Ala-Arg-Leu-P1-ACC library of 133 individual fluorogenic substrates.[34] The assay conditions were as follows: 0.5 μL of each library substrate was placed in one well, and 99.5 μL of preincubated enzyme (15 min, 37 °C) was added. The final library concentration was 100 μM, and the enzyme concentration was 8 nM. The release of ACC was measured for 30 min (λex = 355 nm, λem = 460 nm), but only the linear portion of each progress curve was used to determine the substrate hydrolysis rate (RFU/s, relative fluorescence unit per second). […]

With “Ac-Tyr(2,6-Cl2-Z)-2-Aoc-Glu(Bzl)-Arg-ACC [SMXI7]” the “decrease in activity relative to SMXI3 (P2 L-His(Bzl))” value (fXIa [1]) was 1.5 fold.

“Ac-Tyr(2,6-Cl2-Z)-2-Aoc-Nle(O-Bzl)-Arg-ACC [SMXI22]” was tested, and the “decrease in activity relative to SMXI3 (P2 L-His(Bzl))” value (fXIa [1]) was 2.6 fold.

In the case of “Ac-Tyr(2,6-Cl2-Z)-2-Aoc-hSer(Bzl)-Arg-ACC [SMXI23]”, the “decrease in activity relative to SMXI3 (P2 L-His(Bzl))” value (fXIa [1]) is reported as 5.5 fold.

For “Ac-Tyr(2,6-Cl2-Z)-Dht-His(Bzl)-Arg-ACC [SMXI19]”, the “kcat/KM fXIa” value (fXIa [2]) was 247,000 ± 5,000 M^-1 s^-1 and 247,000 ± 5000 M^-1 s^-1, the “fold better hydrolyzed by fXIa than by fXa (kcat/KM ratio)” value (fXIa [2]; fXIa over fXa) was 80 fold and the “fold better hydrolyzed by fXIa than by thrombin (kcat/KM ratio)” value (fXIa [2]; fXIa over thrombin) was 28 fold. The “kcat/KM APC” value (APC) was 91 ± 3 M⁻¹ s⁻¹.

For “Ac-Tyr(2,6-Cl2-Z)-Nle-Glu(Bzl)-Arg-ACC [SMXI5]”, the “kcat/KM fXIa” value (fXIa [2]) was 99,000 ± 7,000 M^-1 s^-1, the “kcat/KM fXa” value (fXa) was 4,500 ± 300 M^-1 s^-1 and the kcat/KM thrombin (thrombin) was 11,000 ± 300 M^-1 s^-1.

With “Ac-Y(Bn)[Nle]E(OBn)R-{ACC} (SMILES CCCC[C@H](NC(=O)[C@H](Cc1ccc(OCc2ccccc2)cc1)NC(C)=O)C(=O)N[C@@H](CCC(=O)OCc1ccccc1)C(=O)N[C@@H](CCCNC(=N)N)C(=O)Nc1ccc2c(CC(N)=O)cc(=O)oc2c1) [SMXI13]” the “activity on fXIa relative to SMXI5” value (fXIa [1]; more active than SMXI5) was “fourfold”.

With “BODIPY-PEG(4)-Tyr(2,6-Cl2-Z)-Nle-Glu(Bzl)-ArgP(OPh)2 [P-SMXI52]” the “labeling of purified coagulation factors by fluorescent ABP (blot, 488 nm)” value (fXIa [3]) was “only one fluorescent band generated by fXIa labeling and no off-target signals”, the “probe concentration from which a clear fXIa band is observed in human plasma” value (fXIa [4]; probe 1-20 μM, SDS-PAGE, 488 nm, costaining with antifXI antibody) was ≥ 2 µM and the “selectivity of labeling in human plasma” value (fXIa [4]; probe up to 20 μM) was “remained selective even at a high probe concentration (20 μM)”.

For L-Arg, the “relative activity at the P1 position” value (fXIa [5]) was 100%.

For “biotin-PEG(4)-Tyr(2,6-Cl2-Z)-Dht-His(Bzl)-ArgP(OPh)2 [P-SMXI191]”, the “labeling of purified coagulation factors by biotinylated ABP (western blot)” value (fXIa [3]) was “only one signal from a protein between 35 and 40 kDa, corresponding to a fXIa monomer”.

For “biotin-PEG(4)-Tyr(2,6-Cl2-Z)-Nle-Glu(Bzl)-ArgP(OPh)2 [P-SMXI51]”, the “labeling of purified coagulation factors by biotinylated ABP (western blot)” value (fXIa [3]) was “only one signal from a protein between 35 and 40 kDa, corresponding to a fXIa monomer”.
